The values below come from the supplement of paper PMC10307832.

What all share (experiment): relative viability (nuclei count vs DMSO), 5 days (fraction); higher = more cells survive
Compound in the assay “BAM7 + Bortezomib”: CCOC1=CC=CC=C1N=NC2=C(NN(C2=O)C3=NC(=CS3)C4=CC=CC=C4)C [BAM7] + CC(C)C[C@H](NC(=O)[C@H](Cc1ccccc1)NC(=O)c1cnccn1)B(O)O [Bortezomib] (partner 0.002 µM)
In a few lines:
(§1)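 Nuclei were stained with Hoechst during a one-step fixation (final 0.05% Triton X-100, 1% formaldehyde, 1 ug/ml Hoechst) carried out 5 days after dosing, then counted on 4× images. The cells, lung cancer lines in 1536-well plates, had been dosed by pin tool the day after seeding with one drug alone or a fixed anchor-drug dose plus five library-drug doses (not always all listed) in √10 steps. Relative viability is the nuclei count in treated wells divided by that in vehicle wells, and each value is the median of duplicate plates.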

Compound in the assay “BAM7 + Pictilisib”: CCOC1=CC=CC=C1N=NC2=C(NN(C2=O)C3=NC(=CS3)C4=CC=CC=C4)C [BAM7] + CS(=O)(=O)N1CCN(Cc2cc3nc(-c4cccc5[nH]ncc45)nc(N4CCOCC4)c3s2)CC1 [Pictilisib] (partner 1 µM)
Put shortly:
as §1

Compound in the assay “BAM7 + Olaparib”: CCOC1=CC=CC=C1N=NC2=C(NN(C2=O)C3=NC(=CS3)C4=CC=CC=C4)C [BAM7] + O=C(c1cc(Cc2n[nH]c(=O)c3ccccc23)ccc1F)N1CCN(C(=O)C2CC2)CC1 [Olaparib] (partner 8 µM)
Put shortly:
as §1

Compound in assay [1]: CCn1c(-c2nonc2N)nc2c(C#CC(C)(C)O)ncc(OC[C@H]3CCCNC3)c21 + Cc1nc(Nc2ncc(C(=O)Nc3c(C)cccc3Cl)s2)cc(N2CCN(CCO)CC2)n1 [Dasatinib] (partner 0.075 µM)
In a few lines:
as §1

For the cell line PC-14, the relative viability with BAM7 + Bortezomib (first compound 0.5 µM) came to 0.918; in the assay with BAM7 + Bortezomib (first compound 5 µM) it was 1.03; with BAM7 + Bortezomib (first compound 15.81 µM), 0.846; with BAM7 + Bortezomib (first compound 50 µM) it was 0.806; with BAM7 + Pictilisib (first compound 0.5 µM), 0.775; with BAM7 + Pictilisib (first compound 5 µM) it was 1.02. Moreover, the relative viability in the assay with BAM7 + Pictilisib (first compound 15.81 µM) came out at 0.598; with BAM7 + Pictilisib (first compound 50 µM), 0.656; with BAM7 + Olaparib (first compound 0.5 µM), 0.305; with BAM7 + Olaparib (first compound 5 µM), 0.216; in the assay with BAM7 + Olaparib (first compound 15.81 µM) it was 0.161; with BAM7 + Olaparib (first compound 50 µM), 0.234. Also, the relative viability in assay [1] (first compound 0.01 µM) came out at 0.243; in assay [1] (first compound 0.03162 µM) it was 0.292; in assay [1] (first compound 0.1 µM), 0.28; in assay [1] (first compound 0.3162 µM), 0.237; in assay [1] (first compound 1 µM), 0.301.

As to RERF-LC-KJ, the relative viability with BAM7 + Bortezomib (first compound 0.5 µM) is 1.05; with BAM7 + Bortezomib (first compound 5 µM), 1.01; in the assay with BAM7 + Bortezomib (first compound 15.81 µM), 0.948; in the assay with BAM7 + Bortezomib (first compound 50 µM), 0.972; with BAM7 + Pictilisib (first compound 0.5 µM) it was 0.551; with BAM7 + Pictilisib (first compound 5 µM), 0.496. Further, the relative viability with BAM7 + Pictilisib (first compound 15.81 µM) was found to be 0.492; in the assay with BAM7 + Pictilisib (first compound 50 µM), 0.515; with BAM7 + Olaparib (first compound 0.5 µM), 0.346; in the assay with BAM7 + Olaparib (first compound 5 µM), 0.3; in the assay with BAM7 + Olaparib (first compound 15.81 µM) it was 0.288; with BAM7 + Olaparib (first compound 50 µM), 0.304. The relative viability in assay [1] (first compound 0.01 µM) stood at 0.708; in assay [1] (first compound 0.03162 µM) it was 0.815; in assay [1] (first compound 0.1 µM), 0.748; in assay [1] (first compound 0.3162 µM), 0.678; in assay [1] (first compound 1 µM) it was 0.565.

For the cell line SK-LU-1, the relative viability amounted to 1.18 in the assay with BAM7 + Bortezomib (first compound 0.5 µM); 1.46 with BAM7 + Bortezomib (first compound 5 µM); 1.3 with BAM7 + Bortezomib (first compound 15.81 µM); 1.39 in the assay with BAM7 + Bortezomib (first compound 50 µM); 0.502 in the assay with BAM7 + Pictilisib (first compound 0.5 µM); 0.658 with BAM7 + Pictilisib (first compound 5 µM). For the same cell line, the relative viability amounted to 0.678 with BAM7 + Pictilisib (first compound 15.81 µM); 0.737 with BAM7 + Pictilisib (first compound 50 µM); 0.463 with BAM7 + Olaparib (first compound 0.5 µM); 0.542 in the assay with BAM7 + Olaparib (first compound 5 µM); 0.444 with BAM7 + Olaparib (first compound 15.81 µM); 0.55 with BAM7 + Olaparib (first compound 50 µM). Also, the relative viability in assay [1] (first compound 0.01 µM) came to 0.191; in assay [1] (first compound 0.03162 µM), 0.161; in assay [1] (first compound 0.1 µM) it was 0.199; in assay [1] (first compound 0.3162 µM), 0.188; in assay [1] (first compound 1 µM) it was 0.158.

For the cell line SW 1573, the relative viability in the assay with BAM7 + Bortezomib (first compound 0.5 µM) worked out at 0.953; with BAM7 + Bortezomib (first compound 5 µM) it was 1.07; with BAM7 + Bortezomib (first compound 15.81 µM) it was 1.07; with BAM7 + Bortezomib (first compound 50 µM), 0.972; with BAM7 + Pictilisib (first compound 0.5 µM), 0.583; with BAM7 + Pictilisib (first compound 5 µM) it was 0.48. Besides, the relative viability came to 0.457 with BAM7 + Pictilisib (first compound 15.81 µM); 0.483 with BAM7 + Pictilisib (first compound 50 µM); 0.574 with BAM7 + Olaparib (first compound 0.5 µM); 0.583 with BAM7 + Olaparib (first compound 5 µM); 0.461 with BAM7 + Olaparib (first compound 15.81 µM); 0.46 with BAM7 + Olaparib (first compound 50 µM). For the same cell line, the relative viability in assay [1] (first compound 0.01 µM) worked out at 0.377; in assay [1] (first compound 0.03162 µM) it was 0.561; in assay [1] (first compound 0.1 µM), 0.431; in assay [1] (first compound 0.3162 µM) it was 0.455; in assay [1] (first compound 1 µM), 0.354.

For UMC-11, the relative viability with BAM7 + Bortezomib (first compound 0.5 µM) was 0.78; with BAM7 + Bortezomib (first compound 5 µM) it was 0.89; in the assay with BAM7 + Bortezomib (first compound 15.81 µM) it was 0.67; with BAM7 + Bortezomib (first compound 50 µM) it was 0.905; with BAM7 + Pictilisib (first compound 0.5 µM) it was 0.856; with BAM7 + Pictilisib (first compound 5 µM), 0.897. The relative viability came out at 0.85 in the assay with BAM7 + Pictilisib (first compound 15.81 µM); 0.892 with BAM7 + Pictilisib (first compound 50 µM); 0.305 with BAM7 + Olaparib (first compound 0.5 µM); 0.388 in the assay with BAM7 + Olaparib (first compound 5 µM); 0.462 in the assay with BAM7 + Olaparib (first compound 15.81 µM); 0.377 in the assay with BAM7 + Olaparib (first compound 50 µM). The relative viability worked out at 0.449 in assay [1] (first compound 0.01 µM); 0.498 in assay [1] (first compound 0.03162 µM); 0.438 in assay [1] (first compound 0.1 µM); 0.449 in assay [1] (first compound 0.3162 µM); 0.399 in assay [1] (first compound 1 µM).
